# Assay results as given in patent US11524940B1, “Inhibitors of cysteine proteases and methods of use thereof” (priority 2020, dated 2022).
# How the values were obtained:
# SARS-CoV2 Mpro = SARS-CoV2 Mpro (Severe acute respiratory syndrome coronavirus 2 (2019-nCoV) (SARS-CoV-2), UniProt P0DTD1); assay: COVID-19 (SARS-CoV2) Mpro enzymatic assay; format: biochemical; conditions: 25 nM Mpro, 25 μM substrate
# 229E Mpro = 229E Mpro (Human coronavirus 229E (HCoV-229E), UniProt P0C6X1); assay: 229E Mpro activity; format: biochemical; conditions: read-out: 229E Mpro EC50
# Method: Compounds are assayed using standard methods to assess compound activity and IC50. […] The assay buffer contains 20 mM of Tris-HCl (pH 7.3), 100 mM of NaCl, 1 mM of EDTA, 5mM of TCEP and 0.1% BSA.
# [1] = test system: Human Coronavirus (HCov) 229E; assay: HCoV 229E cytopathic effect (CPE) assay; format: cell-based; conditions: protection from virus-induced CPE, CellTiter Glo
# Method: The antiviral activity of compounds is calculated based on the protection of the virus-induced CPE at each concentration normalized by the virus control.
# Reagents and instruments used in this assay include luminescent cell viability assay kit CellTiter Glo (Promega) and Microplate Reader Synergy2 (BioTek).
# Cytopathic effect (CPE) is measured by CellTiter Glo following the manufacturer's manual. The antiviral activity of compounds is calculated based on the protection of the virus-induced CPE at each concentration normalized by the virus control.
# 229E Mpro, sequence (P0C6X1 2966-3267 limits assumed): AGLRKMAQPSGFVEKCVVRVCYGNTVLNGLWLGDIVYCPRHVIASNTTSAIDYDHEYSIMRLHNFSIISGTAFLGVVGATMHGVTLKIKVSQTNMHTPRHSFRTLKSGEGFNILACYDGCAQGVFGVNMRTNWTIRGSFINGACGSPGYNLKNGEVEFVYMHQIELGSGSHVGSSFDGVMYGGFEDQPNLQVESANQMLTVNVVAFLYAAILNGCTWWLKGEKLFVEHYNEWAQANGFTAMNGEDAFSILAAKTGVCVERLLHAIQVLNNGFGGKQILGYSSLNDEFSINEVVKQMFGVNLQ
Molecule,IC50 (SARS-CoV2 Mpro),EC50 (229E Mpro),EC50 ([1]; human coronavirus 229E),EC50 [1]
"N#C[C@H](C[C@@H]1CCCNC1=O)NC(=O)C1CC2(CCCCC2)CN1C(=O)c1cc2cccc(Cl)c2[nH]1 (single isomer, unassigned) [731 (Isomer 1)]",< 2000 nM,< 2000 nM,< 2000 nM,–
"(S)-N-((S)-1-cyano-2-((S)-2-oxopyrrolidin-3-yl)ethyl)-1-(4-methoxy-1H-indole-2-carbonyl)-4,4-dimethylpyrrolidine-2- carboxamide [Compound 395]",2000 to 10000 nM,10000 to 30000 nM,–,2000 to 10000 nM
"COc1cccc2[nH]c(C(=O)N[C@@H](CC(C)C)C(=O)N[C@@H](CC3CCNC3=O)C(C#N)NCc3ccccc3)cc12 (single isomer, unassigned) [507 (Isomer 1.2)]",–,< 2000 nM,–,< 2000 nM
"COc1cccc2[nH]c(C(=O)N[C@@H](CC(C)C)C(=O)N[C@@H](C[C@@H]3CCNC3=O)C(N)C#N)cc12 (stereo partly drawn) [Compound 344C, N-[(1S)-1-[[(1S)-2-amino-2-cyano-1-[[(3S)-2-oxopyrrolidin-3-yl]methyl]ethyl]carbamoyl]-3-methyl-butyl]-4-methoxy-1H-indole-2-carboxamide]",–,< 2000 nM,< 2000 nM,–
"N#C[C@H](C[C@@H]1CCNC1=O)NC(=O)[C@H](CC1CC1)NC(=O)c1cc2cccc(Cl)c2[nH]1 [Compound 531, 7-chloro-N-[(1S)-2-[[(1S)-1-cyano-2-[(3S)-2-oxopyrrolidin-3-yl]ethyl]amino]-1-(cyclopropylmethyl)-2-oxo-ethyl]-1H-indole-2-carboxamide]",–,< 2000 nM,< 2000 nM,–
"N#C[C@H](C[C@@H]1CCCNC1=O)NC(=O)C1CC2(CCCCC2)CN1C(=O)c1cc2ccc(Cl)cc2[nH]1 (single isomer, unassigned) [733 (Isomer 1)]",< 2000 nM,< 2000 nM,< 2000 nM,–
"COc1cccc2[nH]c(C(=O)N[C@@H](CC(C)C)C(=O)N[C@H](C#N)C[C@@H]3CCNC3=O)cc12 [Compound 101, N-[(1S)-1-[[(1S)-1-cyano-2-[(3S)-2-oxopyrrolidin-3-yl]ethyl]carbamoyl]-3-methyl-butyl]-4-methoxy-1H-indole-2-carboxamide]",–,< 2000 nM,< 2000 nM,–
"COc1cccc2[nH]c(C(=O)N3CC4(CC3C(=O)N[C@H](C#N)C[C@@H]3CCCNC3=O)CC(F)(F)C4)cc12 (single isomer, unassigned) [723 (Isomer 2)]",< 2000 nM,< 2000 nM,< 2000 nM,–
"COc1cccc2[nH]c(C(=O)N[C@@H](CC(C)C)C(=O)N[C@@H](CC3CCNC3=O)C(C#N)NCc3ccccc3)cc12 (single isomer, unassigned) [507 (Isomer 1.1)]",–,< 2000 nM,< 2000 nM,–
